Common to all, as to assay type: biochemical
In one experiment the target is recombinant hSSAO (Homo sapiens (Human), UniProt Q16853). Put plainly: SSAO Activity Assay (MAO-Glo assay kit). The settings on record: 40 μM substrate, 30 mins pre-incubation. The essentials: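 Substrate was 4 μM in MAO-B buffer for hMAO-B and 40 μM in MAO-A buffer for hSSAO and hMAO-A. Each enzyme first saw compound (0.1% DMSO vehicle) for 30 min at room temperature.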

The target in another experiment is recombinant hMAO-A (Homo sapiens (Human), UniProt P21397). Put plainly: MAO-A activity assay (MAO-Glo assay kit). The conditions noted are these: 40 μM substrate, 30 mins pre-incubation. How it is done: (§1) The biological activities of the compounds of the present application can be assessed with methods and assays known in the art. For example, the potency of the compounds of the present application can be evaluated with an SSAO Activity Assay. Briefly, compounds of the present application can be applied to recombinant hSSAO, hMAO-A, and hMAO-B isoforms and the amine oxidase activity of the enzymes are measured after the addition and subsequent oxidation of the luminogenic substrate (e.g., with the MAO-Glo assay kit from Promega). The IC50 can be calculated, for example, by fitting the dose response curve using a 4-parameter non-linear regression routine.
Sequence of recombinant hMAO-A (P21397 whole entry, canonical isoform): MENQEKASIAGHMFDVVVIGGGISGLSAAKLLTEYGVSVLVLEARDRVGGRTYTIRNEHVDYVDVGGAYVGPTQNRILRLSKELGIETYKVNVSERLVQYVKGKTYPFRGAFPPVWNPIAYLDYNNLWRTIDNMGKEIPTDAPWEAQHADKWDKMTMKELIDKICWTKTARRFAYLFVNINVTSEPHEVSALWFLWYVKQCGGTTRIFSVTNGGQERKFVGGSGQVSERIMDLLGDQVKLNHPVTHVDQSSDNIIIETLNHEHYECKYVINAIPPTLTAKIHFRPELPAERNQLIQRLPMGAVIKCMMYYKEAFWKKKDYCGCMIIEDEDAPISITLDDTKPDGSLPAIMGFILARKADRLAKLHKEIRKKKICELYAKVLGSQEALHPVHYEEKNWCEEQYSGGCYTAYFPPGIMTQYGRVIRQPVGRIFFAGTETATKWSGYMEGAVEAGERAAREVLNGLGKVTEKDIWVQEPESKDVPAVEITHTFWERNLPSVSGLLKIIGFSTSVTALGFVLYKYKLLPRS
(§2) Amine oxidase activity of recombinant hSSAO, hMAO-A, and hMAO-B isoforms are measured using the MAO-Glo assay kit (Promega, V1402). Ten nL test compounds (with DMSO as vehicle, 0.1% v/v for hSSAO, hMAO-A and hMAO-B) were added into assay plates by Echo, and pre-incubated with 5 μL of enzyme for 30 mins at room temperature before the addition of 5 μL of luminogenic substrate. The substrate concentration is 40 μM for human recombinant SSAO, 40 μM for human recombinant MAO-A, and 4 μM for human recombinant MAO-B. The hSSAO and hMAO-A assays were conducted in the MAO-A reaction buffer in the kit, and the MAO-B assay was conducted in the MAO-B reaction buffer. Oxidation of the substrate was conducted for 1 hr, before the addition of detecting reagent according the manufacture's protocol. The IC50 value of the tested compounds was calculated by fitting the dose response curve using a 4-parameter non-linear regression routine.

Another experiment has as its target recombinant hMAO-B (Homo sapiens (Human), UniProt P27338). In words: MAO-B activity assay (MAO-Glo assay kit). The settings on record: 4 μM substrate, 30 mins pre-incubation. How it is done:
as §1, §2

The text below walks through data of patent US11472769B2, “SSAO inhibitors and use thereof” (Eccogene (Shanghai) Co., Ltd., priority 2019, dated 2022).

The IC50 is the point on the concentration scale where inhibition reaches its midpoint.

Molecules are shown by their SMILES.

Sequence of recombinant hMAO-B (P27338 whole entry): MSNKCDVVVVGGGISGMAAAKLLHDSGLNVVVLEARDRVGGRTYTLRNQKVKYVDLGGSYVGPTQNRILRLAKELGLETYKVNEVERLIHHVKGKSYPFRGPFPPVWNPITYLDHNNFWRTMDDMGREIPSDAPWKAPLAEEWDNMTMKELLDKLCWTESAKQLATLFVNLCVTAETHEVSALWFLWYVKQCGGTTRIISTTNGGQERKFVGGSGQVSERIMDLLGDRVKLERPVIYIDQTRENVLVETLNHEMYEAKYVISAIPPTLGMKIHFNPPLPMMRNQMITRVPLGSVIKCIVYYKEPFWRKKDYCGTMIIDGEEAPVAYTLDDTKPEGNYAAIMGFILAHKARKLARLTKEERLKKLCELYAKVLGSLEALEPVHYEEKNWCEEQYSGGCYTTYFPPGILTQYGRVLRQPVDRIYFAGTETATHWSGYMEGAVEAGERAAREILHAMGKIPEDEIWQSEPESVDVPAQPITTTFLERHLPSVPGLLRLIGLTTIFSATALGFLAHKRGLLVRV
Sequence of recombinant hSSAO (Q16853 whole entry): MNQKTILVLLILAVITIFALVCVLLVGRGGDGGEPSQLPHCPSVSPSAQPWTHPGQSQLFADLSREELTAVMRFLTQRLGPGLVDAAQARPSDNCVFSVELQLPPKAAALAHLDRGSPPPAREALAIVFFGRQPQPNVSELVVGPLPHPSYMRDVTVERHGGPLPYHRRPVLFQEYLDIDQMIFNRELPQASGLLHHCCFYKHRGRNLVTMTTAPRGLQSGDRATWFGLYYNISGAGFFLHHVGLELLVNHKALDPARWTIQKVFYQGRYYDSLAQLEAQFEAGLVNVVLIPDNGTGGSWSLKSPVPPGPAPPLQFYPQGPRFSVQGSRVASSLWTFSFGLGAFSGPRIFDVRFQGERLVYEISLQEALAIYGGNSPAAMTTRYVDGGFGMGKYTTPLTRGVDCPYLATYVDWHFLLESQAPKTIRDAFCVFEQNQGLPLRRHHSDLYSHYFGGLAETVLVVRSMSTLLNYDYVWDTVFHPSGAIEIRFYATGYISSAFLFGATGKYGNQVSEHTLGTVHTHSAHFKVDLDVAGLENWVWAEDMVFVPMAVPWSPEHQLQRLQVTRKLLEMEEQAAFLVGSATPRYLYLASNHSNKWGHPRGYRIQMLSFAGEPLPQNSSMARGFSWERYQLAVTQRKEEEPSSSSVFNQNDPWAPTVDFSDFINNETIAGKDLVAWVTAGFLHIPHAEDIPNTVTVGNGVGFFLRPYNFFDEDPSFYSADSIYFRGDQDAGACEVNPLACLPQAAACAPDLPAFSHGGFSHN

As to `CC1(CS(=O)(=O)c2ccc(OC/C(=C/F)CN)cc2)CCN(C(=O)C2(C)CCC2)CC1` [Compound 56, (E)-(4-(((4-((2-(aminomethyl)-3-fluoroallyl)oxy)phenyl)sulfonyl)methyl)-4-methylpiperidin-1-yl)(1-methylcyclobutyl)methanone], the IC50 is 0.02 to 0.1 µM at recombinant hSSAO, more than 30 µM on recombinant hMAO-A and 10 to 30 µM at recombinant hMAO-B.
For the compound `NC/C(=C\F)COc1ccc(S(=O)(=O)CC2CCN(C(=O)C3CCCC3)CC2)c(F)c1` [Compound 58], the IC50 was 0.1 to 0.5 µM at recombinant hSSAO, more than 30 µM at recombinant hMAO-A and more than 30 µM at recombinant hMAO-B.
In the case of `NC/C(=C\F)COc1ccc(S(=O)(=O)CC2CCN(C(=O)CC(F)(F)F)CC2)c(F)c1` [Compound 59, (E)-1-(4-(((4-((2-(aminomethyl)-3-fluoroallyl)oxy)-2-fluorophenyl)sulfonyl)methyl)piperidin-1-yl)-3,3,3-trifluoropropan-1-one], the IC50 is 0.02 to 0.1 µM at recombinant hSSAO, more than 30 µM at recombinant hMAO-A and more than 30 µM at recombinant hMAO-B.
`NC/C(=C\F)COc1ccc(S(=O)(=O)CC23CCC(C(=O)N4CCCC4)(CC2)CC3)cc1` [Compound 61, (E)-(4-(((4-((2-(aminomethyl)-3-fluoroallyl)oxy)phenyl)sulfonyl)methyl)bicyclo[2.2.2]octan-1-yl)(pyrrolidin-1-yl)methanone]: the IC50 was less than 0.02 µM on recombinant hSSAO, more than 30 µM at recombinant hMAO-A and 10 to 30 µM at recombinant hMAO-B.
For `NC/C(=C\F)COc1ccc(S(=O)(=O)CC23CCC(C(=O)NCC4CC4)(CC2)CC3)cc1` [Compound 66, (E)-4-(((4-((2-(aminomethyl)-3-fluoroallyl)oxy)phenyl)sulfonyl)methyl)-N-(cyclopropylmethyl)bicyclo [2.2.2]octane-1-carboxamide], in that order: less than 0.02 µM, more than 30 µM and 10 to 30 µM.
On to `CC1(NC(=O)C23CCC(CS(=O)(=O)c4ccc(OC/C(=C/F)CN)cc4)(CC2)CC3)CC1` [Compound 67, (E)-4-(((4-((2-(aminomethyl)-3-fluoroallyl)oxy)phenyl)sulfonyl)methyl)-N-(1-methylcyclopropyl)bicyclo[2.2.2] octane-1-carboxamide], for which the IC50 on recombinant hSSAO is less than 0.02 µM; at recombinant hMAO-A it was more than 30 µM; at recombinant hMAO-B it was more than 30 µM.
In the case of `CC(C)OCCNC(=O)C12CCC(CS(=O)(=O)c3ccc(OC/C(=C/F)CN)cc3)(CC1)CC2` [Compound 68, (E)-4-(((4-((2-(aminomethyl)-3-fluoroallyl)oxy)phenyl)sulfonyl)methyl)-N-(2-isopropoxyethyl)bicyclo[2.2.2] octane-1-carboxamide], the IC50 was less than 0.02 µM on recombinant hSSAO, more than 30 µM on recombinant hMAO-A and more than 30 µM on recombinant hMAO-B.
On to `NC/C(=C\F)COc1ccc(S(=O)(=O)CC23CCC(C(=O)NC4CC(F)(F)C4)(CC2)CC3)cc1` [Compound 69, (E)-4-(((4-((2-(aminomethyl)-3-fluoroallyl)oxy)phenyl)sulfonyl)methyl)-N-(3,3-difluorocyclobutyl)bicyclo[2.2.2] octane-1-carboxamide], for which the IC50 is less than 0.02 µM on recombinant hSSAO, more than 30 µM on recombinant hMAO-A and 10 to 30 µM at recombinant hMAO-B.
Taken in the same sequence, the figures for `NC/C(=C\F)COc1ccc(S(=O)(=O)CC23CCC(C(=O)N4CCC4)(CC2)CC3)cc1` [Compound 71] were less than 0.02 µM, more than 30 µM and 10 to 30 µM.
Consider `NC/C(=C\F)COc1ccc(S(=O)(=O)CC23CCC(C(=O)N4CC(F)(F)C4)(CC2)CC3)cc1` [Compound 72], for which the IC50 on recombinant hSSAO is less than 0.02 µM; at recombinant hMAO-A, more than 30 µM; on recombinant hMAO-B, more than 30 µM.
With `CN(C(=O)C12CCC(CS(=O)(=O)c3ccc(OC/C(=C/F)CN)cc3)(CC1)CC2)C1CC1` [Compound 73, (E)-4-(((4-((2-(aminomethyl)-3-fluoroallyl)oxy)phenyl)sulfonyl)methyl)-N-cyclopropyl-N-methylbicyclo[2.2.2]octane-1-carboxamide], the figures for the IC50 at recombinant hSSAO, at recombinant hMAO-A and on recombinant hMAO-B were 0.02 to 0.1 µM, more than 30 µM and more than 30 µM, respectively.
